Measured values taken from patent US20250375464A1, “FORMULATIONS FOR MODULATING MYC EXPRESSION” (FLAGSHIP PIONEERING INNOVATIONS V, INC., priority 2022, published 2025).

Assays:
Hep 3B tumors = test: Hep 3B subcutaneous xenograft in nude mice, tumor volume
Description: In this example, 0.6 mg/ml LNP (MC3) formulated effector (dCas9-MQ1/GD-17) was delivered to tumor sites by intratumoral injection on day 1 and day 7 (20 μl/mice) in the test group animals. The control group mice were injected at the tumor site either with PBS or with 0.6 mg/ml LNP (MC3) control effector dCas9/GD-SafeHarbor (20 μl/mice). Each control and test group consisted of 6 animals having SubQ Hep3B Xenografts (250 mm^3). Changes in tumor volume for each group was measured every 3 days for 15 days. At the end of 15 days, the changes in mean tumor volume were measured using Paired T-test and was plotted.
(§1) Hep 3B tumor cells were implanted into the left flank of thirty female nude mice to induce tumor. Changes in tumor volume was measured and the treatment initiated when mean tumor volume reached approximately 100-150 mm^3. Mice were divided into treatment and control groups so that mean tumor volume in each group were approximately equal. Control groups were injected either with PBS or with MYCi975, a small molecule comparator. The mice in each group were injected intratumorally with PBS (every 5 days for 3 doses then switched to IV for 2 doses), intravenously with ZF9-MQ1 (every 5 days at 3 mg/kg) or intraperitoneally with MYCi975 (once daily for 5 days/week). All animals were weighed daily and assessed visually. Changes in tumor volume for each group were measured 3 times per week. Over the course of 22 days, the changes in body weight from baseline and the mean tumor volume were measured using Paired T-test and was plotted (FIG. 14A-B).
Hep 3B tumor cells were implanted into the left flank of seventy-two female nude mice to induce tumor. Changes in tumor volume was measured and the treatment initiated when mean tumor volume reached approximately 200 mm^3. Mice were divided into nine treatment groups (8 mice each) so that mean tumor volume in each group was approximately equal. The mice in each group were injected intravenously with PBS (every 5 days for 3 doses then every 3 days for 3 doses), ZF9-MQ1 at 1 mg/kg and 3 mg/kg (every 5 days for 3 doses then every 3 days for 3 doses), co-formulated ZF9-MQ1+ZF3-KRAB at 1 mg/kg and 3 mg/kg (every 5 days for 3 doses then every 3 days for 3 doses), negative control mRNA at 1 mg/kg and 3 mg/kg (every 5 days for 3 doses then every 3 days for 3 doses), intraperitoneal with MYCi975 at 100 mg/kg (once daily for 5 days per week) or intraperitoneal with cisplatin at 1 mg/kg (once every 15 days). All animals were weighed daily and assessed visually. Changes in tumor volume were measured 3 times per week.
Disease was induced in female nude mice by the implantation of Hep 3B tumor cells into the left flank. […] All animals were weighed daily and assessed visually. Tumors sizes were measured 3 times per week. […]

Hep3B-luc tumors = test: Orthotopic Hep3B-luc model, tumor bioluminescence; format: in vivo, mice (Fox Chase CB17 SCID; nude); conditions: nude mice
Description: Tumor progression was measured by luminescence. […] It is unclear whether this is related to treatment. […] Statistically significant differences were observed between treatment groups.
Sorafenib was given orally (PO) daily (QD) as a standard of care control. Tumor progression was measured by luminescence. No animal deaths were noted.

HEPG2 tumors = test: HepG2 subcutaneous xenograft in nude mice; format: in vivo; parameters: dose or concentration left out as unconfirmed
SKHEP1 tumors = test: SKHEP1 subcutaneous xenograft in nude mice; format: in vivo; conditions: 50 mg/kg orally daily
Description: Animals were dosed every 5 days.
Sorafenib was given daily at 50 mg/kg.

[1] = Body weight and tolerability of tumor bearing mice
Description: as §1
All animals were weighed daily and assessed visually.

[2] = Overall animal (body) weight in the tumor studies (FIGS. 14-16, 20); format: in vivo, mice; conditions: doses as in the respective tumor study

| Compound | increase in tumor volume (Hep 3B tumors; Example 44, 25 mg/kg alone, 12 days) | tumor luminescence relative to PBS controls (Hep3B-luc tumors; Example 45, 50 mg/kg orally daily) | tumor luminescence relative to PBS controls (Hep3B-luc tumors; Example 46, 50 mg/kg PO QD) | tumor growth (HEPG2 tumors) | tumor growth (SKHEP1 tumors) | weight gain ([1]; SK-HEP-1 subcutaneous, 50 mg/kg orally daily) | body weight ([1]; orthotopic Hep3B-luc, SCID mice, ZF9-MQ1+ZF3-KRAB 1.5-6 mg/kg every 5 days, sorafenib 50 mg/kg daily orally) | tumor growth relative to PBS controls (Hep 3B tumors; 50 mg/kg orally every day (Example 35)) | tumor growth relative to PBS controls (Hep 3B tumors; Example 40, 50 mg/kg orally daily) | tumor growth relative to PBS control (Hep 3B tumors; Example 43, 25 mg/kg QD alone, 16 days) | overall animal (body) weight, result in words [2] |
| --- | --- | --- | --- | --- | --- | --- | --- | --- | --- | --- | --- |
| Cc1sc2c(c1C)C(c1ccc(Cl)cc1)=N[C@@H](CC(=O)OC(C)(C)C)c1nnc(C)n1-2 [JQ1] | did not significantly inhibit | – | – | – | – | – | – | – | – | – | – |
| CNC(=O)c1cc(Oc2ccc(NC(=O)Nc3ccc(Cl)c(C(F)(F)F)c3)cc2)ccn1 [sorafenib] | – | statistically significant reduction in tumor luminescence | statistically significant reduction in tumor luminescence | statistically significant reduction in tumor growth | statistically significant reduction in tumor growth | Statistically significant reductions in weight gain | initial drop in body weight | statistically significant reduction in tumor growth | statistically significant reduction in tumor growth | did not significantly reduce tumor growth | initial drop in body weight with a later gain in overall body weight |
